# Values of other authors, collected in patent publication US12295956B2, “Anti-viral compositions” (Calladine Pharmaceuticals Limited, priority 2018, dated 2025).
# Key:
# [1] = gentle heating to a pourable hot liquid
compound,measurement,setting,value
"Nc1nc2c(ncn2COCCO)c(=O)[nH]1 [Aciclovir, aciclovir]",heat stability,[1],relatively heat stable
same,solubility in hydrophobic solvent systems,hydrophobic solvent systems,almost totally insoluble
same,solubility in water,water,poor solubility in water
